Assay results: US20220401514A1, “ANTIMICROBIAL, BACTERIOPHAGE-DERIVED POLYPEPTIDES AND THEIR USE AGAINST GRAM-NEGATIVE AND ACID-FAST BACTERIA” (CONTRAFECT CORPORATION, priority 2019, published 2022)

Legend:
[1] = system: Klebsiella pneumoniae strain 1139; test: Checkerboard assay (FICI) with antibiotics, K. pneumoniae; type: cell-based
Experimental: (§1) Checkerboard assays. […] Checkerboards were constructed by first preparing columns of a 96-well polypropylene microtiter plate, in which each well had the same amount of antibiotic diluted 2-fold along the horizontal axis. […] Summation fractional inhibitory concentration index (FICIs) were calculated for each drug and the minimum FICI was used to determine synergy. FICIs were calculated as follows: FICI=FIC A+FIC B, where FIC A is the MIC of each antibiotic in the combination/MIC of the each antibiotic alone, and FIC B is the MIC of each Chp peptide in the combination/MIC of each Chp peptide alone. The combination is considered synergistic when the FICI is ≤0.5, strongly additive when the FICI is >0.5 to <1, additive with the FICI is 1-<2, and antagonistic when the FICI is ≥2.

[2] = system: P. aeruginosa strain CFS-1292; test: Checkerboard assay (FICI) with antibiotics, P. aeruginosa; type: cell-based, Pseudomonas aeruginosa; conditions: for Antibiotic FIC: P. aeruginosa CFS-1292; for Antibiotic MIC in checkerboard: P. aeruginosa CFS-1292, CAA + […] human serum
Experimental: Any known method to assess MIC may be used.
Checkerboards are constructed by first preparing columns of e.g., a 96-well polypropylene microtiter plate, wherein each well has the same amount of antibiotic diluted 2-fold along the horizontal axis. […] Bacteria are added to the drug combinations at concentrations of 1×10^5 […] in CAA, for example, with or without human serum or pulmonary surfactant. […] Summation fractional inhibitory concentrations (ΣFICs) are calculated for each drug and the minimum ΣFIC value (ΣFICmin) is used to determine the effect of the Chp peptide/antibiotic combination.
as §1
In the checkerboard assay, fractional inhibitory concentration index (FICI) values are calculated.

[3] = system: Acinetobacter baumannii strain 30; test: Checkerboard assay (FICI) with antibiotics, A. baumannii; type: cell-based; conditions: checkerboard
Experimental: as §1
The results are shown below in Tables 22-27.

[4] = system: LPS; test: Endotoxin neutralization, limulus amoebocyte lysate (LAL) enzyme assay, LPS binding; type: biochemical; conditions: LPS 0.8 EU/mL
Experimental: CHEM. […] The standard reference samples contained only LPS dissolved in pyrogen-free water. Solutions were mixed well and incubated at 24° C. for 1 hour, and the manufacturers' test procedure for quantitative detection of endotoxins was followed.

[5] = system: M. smegmatis; test: 45 hr MIC against M. smegmatis (NTM), Mueller Hinton broth; type: cell-based, Mycobacterium smegmatis; conditions: M. smegmatis MC^2 155, Run #1
[6] = system: carbapenem-resistant P. aeruginosa clinical isolate CFS-1292; test: MIC by modified CLSI broth microdilution against P. aeruginosa CFS-1292 (CAA, CAA + human serum); type: cell-based, Pseudomonas aeruginosa; conditions: for MIC (μg/mL) against CFS-1292 in 100% CAA (1st run/2nd run): 1st run or single value
[7] = checkerboard, in combination with Chp4-M1
[8] = checkerboard, in combination with Chp6-M1
[9] = checkerboard, in combination with Chp10-M1
[10] = checkerboard, in combination with Unp2-M1

| Molecule | Antibiotic FIC [1, 7] | Antibiotic MIC [1, 7] [µg/mL] | Antibiotic MIC [1, 8] [µg/mL] | Antibiotic MIC [1, 9] [µg/mL] | Antibiotic MIC [1, 10] [µg/mL] | Antibiotic MIC in checkerboard ([1]; combined with Chp2) [µg/mL] | Antibiotic FIC ([2]; combined with Chp2-M1) | Antibiotic FIC ([2]; combined with Chp2) | Antibiotic FIC ([2]; combined with Chp4-M1) | Antibiotic FIC ([2]; combined with Chp6-M1) | Antibiotic FIC ([2]; combined with Unp2-M1) | Antibiotic MIC ([3]; in combination with Chp2) [µg/mL] | Antibiotic FIC ([3]; in combination with Chp2-M1) | Antibiotic FIC ([3]; in combination with Chp4-M1) | Antibiotic MIC ([3]; in combination with Chp4-M1) [µg/mL] | Antibiotic FIC ([3]; in combination with Chp6-M1) | Antibiotic FIC ([3]; in combination with Chp10-M1) | Antibiotic MIC ([3]; in combination with Chp10-M1) [µg/mL] | Antibiotic FIC ([3]; in combination with Unp2-M1) | Antibiotic FIC ([3]; in combination with Chp2) | further results |
| --- | --- | --- | --- | --- | --- | --- | --- | --- | --- | --- | --- | --- | --- | --- | --- | --- | --- | --- | --- | --- | --- |
| colistin [reference compound] | 0.25 | 0.03125 | 0.01562 | 0.03125 | 0.03125 | 0.007812 | 0.25 | 0.25 | 0.25 | 0.25 | 0.25 | 0.0009766 | 0.5 | 0.5 | 0.003906 | 0.25 | 0.25 | 0.0009766 | 0.5 |  | Antibiotic FIC [1, 9]: 0.25; Antibiotic MIC in checkerboard ([1]; combined with Chp2-M1): 0.01562 µg/mL; Antibiotic MIC in checkerboard ([2]; combined with Chp2-M1): 0.01562 µg/mL; Antibiotic MIC in checkerboard ([2]; combined with Chp2): 0.01562 µg/mL; Antibiotic MIC in checkerboard ([2]; combined with Chp4-M1): 0.03125 µg/mL; Antibiotic MIC in checkerboard ([2]; combined with Chp6-M1): 0.01562 µg/mL; Antibiotic MIC in checkerboard ([2]; combined with Chp10-M1): 0.007806 µg/mL; Antibiotic MIC in checkerboard ([2]; combined with Unp2-M1): 0.01562 µg/mL; LPS binding ([4]; […]-64 μg/mL, 24° C., 1 hour): dose-dependent increases in LPS binding; % LPS Bound ([4]; peptide concentration 0.5 μg/mL): 22.5%; % LPS Bound ([4]; peptide concentration 1 μg/mL): 51.9%; % LPS Bound ([4]; peptide concentration 2 μg/mL): 74.2%; % LPS Bound ([4]; peptide concentration 4 μg/mL): 88.2%; % LPS Bound ([4]; peptide concentration 8 μg/mL): 92.4%; % LPS Bound ([4]; peptide concentration 16 μg/mL): 92.8%; % LPS Bound ([4]; peptide concentration 32 μg/mL): 92.2%; % LPS Bound ([4]; peptide concentration 64 μg/mL): 93.4% |
| Gentamicin |  |  |  |  |  |  |  | 0.5 |  |  | 0.25 | 0.03125 | 0.5 | 0.5 | 0.03125 | 0.5 | 0.01562 | 0.0009766 | 0.5 | 0.25 | Antibiotic MIC ([3]; in combination with Chp2-M1): 0.03125 µg/mL; Antibiotic MIC ([3]; in combination with Chp6-M1): 0.03125 µg/mL; Antibiotic MIC ([3]; in combination with Unp2-M1): 0.03125 µg/mL |
| CCN1CCN(C(=O)N[C@@H](C(=O)N[C@@H]2C(=O)N3[C@@H]2SC(C)(C)[C@@H]3C(=O)O)c2ccccc2)C(=O)C1=O [Piperacillin] |  |  |  |  |  |  | 0.125 | 0.5 | 0.5 | 0.25 | 0.25 | 8 | 0.25 | 0.25 | 8 | 0.5 | 0.25 | 4 | 0.25 | 0.25 | Antibiotic MIC in checkerboard ([2]; combined with Chp2-M1): 1 µg/mL; Antibiotic MIC in checkerboard ([2]; combined with Chp2): 4 µg/mL; Antibiotic MIC in checkerboard ([2]; combined with Chp4-M1): 8 µg/mL; Antibiotic MIC in checkerboard ([2]; combined with Chp6-M1): 2 µg/mL; Antibiotic FIC ([2]; combined with Chp10-M1): 0.25; Antibiotic MIC in checkerboard ([2]; combined with Chp10-M1): 2 µg/mL; Antibiotic MIC in checkerboard ([2]; combined with Unp2-M1): 2 µg/mL; Antibiotic MIC ([3]; in combination with Chp2-M1): 8 µg/mL; Antibiotic MIC ([3]; in combination with Chp6-M1): 16 µg/mL; Antibiotic MIC ([3]; in combination with Unp2-M1): 8 µg/mL |
| MRKKMHKSLDKRVFNRTAKKSKKINVNPVVYRGGIRL [CDL907] |  |  |  |  |  |  |  |  |  |  |  |  |  |  |  |  |  |  |  |  | 45 hr MIC [5]: >128 µg/mL; MIC (μg/mL) against CFS-1292 in 100% CAA (1st run/2nd run) [6]: 8 µg/mL; MIC (μg/mL) against CFS-1292 in CAA + […] human serum [6]: 0.5 µg/mL |
| C[C@H]1[C@H](NC(=O)/C(=N\OC(C)(C)C(=O)O)c2csc(N)n2)C(=O)N1S(=O)(=O)O [Aztreonam] | 0.5 | 0.007812 | 0.007812 | 0.007812 | 0.007812 | 0.007812 | 0.5 | 0.25 | 0.25 | 0.25 |  | 8 | 0.25 | 0.25 | 16 | 0.25 | 0.25 | 8 | 0.25 | 0.25 | Antibiotic FIC [1, 8]: 0.25; Antibiotic FIC [1, 9]: 0.25; Antibiotic FIC [1, 10]: 0.007812; Antibiotic FIC ([1]; combined with Chp2): 0.5; Antibiotic FIC ([1]; combined with Chp2-M1): 0.5; Antibiotic MIC in checkerboard ([1]; combined with Chp2-M1): 0.007812 µg/mL; Antibiotic FIC ([2]; combined with Chp10-M1): 0.25; Antibiotic MIC ([3]; in combination with Chp2-M1): 8 µg/mL; Antibiotic MIC ([3]; in combination with Chp6-M1): 8 µg/mL; Antibiotic MIC ([3]; in combination with Unp2-M1): 16 µg/mL |
| C[C@H]1COc2c(N3CCN(C)CC3)c(F)cc3c(=O)c(C(=O)O)cn1c23 [Levofloxacin] | 0.25 | 0.007812 | 0.007812 | 0.007812 | 0.01562 | 0.007812 | 0.25 | 0.25 | 0.5 | 0.25 | 0.25 |  | 0.25 | 0.25 |  | 0.25 | 0.25 |  | 0.25 | 0.25 | Antibiotic FIC [1, 8]: 0.25; Antibiotic FIC [1, 9]: 0.125; Antibiotic FIC [1, 10]: 0.01562; Antibiotic FIC ([1]; combined with Chp2): 0.25; Antibiotic FIC ([1]; combined with Chp2-M1): 0.25; Antibiotic MIC in checkerboard ([1]; combined with Chp2-M1): 0.007812 µg/mL; Antibiotic FIC ([2]; combined with Chp10-M1): 0.25 |
| NCC[C@H](O)C(=O)N[C@@H]1C[C@H](N)[C@@H](O[C@H]2O[C@H](CN)[C@@H](O)[C@H](O)[C@H]2O)[C@H](O)[C@H]1O[C@H]1O[C@H](CO)[C@@H](O)[C@H](N)[C@H]1O [Amikacin] |  |  |  |  |  |  | 0.25 | 0.25 | 0.0625 | 0.25 | 0.25 |  | 0.5 | 0.5 |  | 0.5 | 0.5 |  | 0.5 | 0.25 | Antibiotic MIC in checkerboard ([2]; combined with Chp2-M1): 0.5 µg/mL; Antibiotic MIC in checkerboard ([2]; combined with Chp2): 0.5 µg/mL; Antibiotic MIC in checkerboard ([2]; combined with Chp6-M1): 0.5 µg/mL; Antibiotic FIC ([2]; combined with Chp10-M1): 0.125; Antibiotic MIC in checkerboard ([2]; combined with Chp10-M1): 0.25 µg/mL; Antibiotic MIC in checkerboard ([2]; combined with Unp2-M1): 0.5 µg/mL |
| CC[C@H]1OC(=O)[C@H](C)[C@@H](O[C@H]2C[C@@](C)(OC)[C@@H](O)[C@H](C)O2)[C@H](C)[C@@H](O[C@@H]2O[C@H](C)C[C@H](N(C)C)[C@H]2O)[C@](C)(O)C[C@@H](C)CN(C)[C@H](C)[C@@H](O)[C@]1(C)O [Azithromycin] | 0.25 | 1 | 1 | 1 | 1 | 1 |  | 0.25 | 0.25 | 0.25 |  | 0.5 | 0.25 | 0.25 | 0.5 | 0.25 | 0.5 | 0.5 | 0.5 | 0.5 | Antibiotic FIC [1, 8]: 0.5; Antibiotic FIC ([1]; combined with Chp2-M1): 0.25; Antibiotic MIC in checkerboard ([1]; combined with Chp2-M1): 1 µg/mL; Antibiotic MIC ([3]; in combination with Chp2-M1): 0.5 µg/mL; Antibiotic MIC ([3]; in combination with Chp6-M1): 0.5 µg/mL; Antibiotic MIC ([3]; in combination with Unp2-M1): 0.5 µg/mL |
| MKKRTKALLPYAVFIILSFQLTLLTALFMYYHYTF [Lvp2] |  |  |  |  |  |  |  |  |  |  |  |  |  |  |  |  |  |  |  |  | MIC (μg/mL) against CFS-1292 in 100% CAA (1st run/2nd run) [6]: 32 µg/mL; MIC (μg/mL) against CFS-1292 in CAA + […] human serum [6]: 8 µg/mL |
